According to the supplement of paper PMC5908809:

Key:
[1] = system: normal NK cells expanded with K562-aAPC; assay: percent inhibition of viability; higher = more inhibition; conditions: 72 h, IL-2 2.5 ng/mL
Method: (§1)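 Drug sensitivity and resistance testing on K562-aAPC-expanded normal NK cells: 5 concentrations (10-fold steps over a 10,000-fold range), 72 h at 37 °C, viability by CellTiter-Glo normalised to DMSO and benzethonium chloride controls; DSS from the fitted curve.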

DERL-7 (IL-2 2.5 ng/mL) [2] = assay: as above; conditions: 72 h
IMC-1 (IL-2 20 ng/mL) [3] = assay: as above; conditions: 72 h
KAI3 (IL-2 2.5 ng/mL) [4] = assay: as above; conditions: 72 h
KHYG-1 (IL-2 2.5 ng/mL) [5] = assay: as above; conditions: 72 h
NK-92 (IL-2 2.5 ng/mL) [6] = assay: as above; conditions: 72 h
NK-YS (IL-2 2.5 ng/mL) [7] = assay: as above; conditions: 72 h
NKL (IL-2 2.5 ng/mL) [8] = assay: as above; conditions: 72 h
SNK-6 (IL-2 2.5 ng/mL) [9] = assay: as above; conditions: 72 h
YT (IL-2 2.5 ng/mL) [10] = assay: as above; conditions: 72 h
[11] = system: normal primary NK cells, pool 1 (3 donors) (IL-2 2.5 ng/mL); assay: as above; conditions: 72 h
[12] = system: normal primary NK cells, pool 1 (3 donors), resting (IL-2 0 ng/mL); assay: as above; conditions: 72 h
[13] = system: normal primary NK cells, pool 2 (3 donors) (IL-2 2.5 ng/mL); assay: as above; conditions: 72 h
[14] = system: normal primary NK cells, pool 3 (3 donors) (IL-2 2.5 ng/mL); assay: as above; conditions: 72 h
[15] = system: normal NK cells expanded with K562-aAPC; assay: drug sensitivity score (DSS) (DSS units); higher = more sensitive; extreme values may be limits of the assay; conditions: 72 h; IL-2 2.5 ng/mL
Method: as §1

DERL-7 (IL-2 2.5 ng/mL) [16] = assay: as above; conditions: 72 h
IMC-1 (IL-2 20 ng/mL) [17] = assay: as above; conditions: 72 h
KAI3 (IL-2 2.5 ng/mL) [18] = assay: as above; conditions: 72 h
KHYG-1 (IL-2 2.5 ng/mL) [19] = assay: as above; conditions: 72 h
NK-92 (IL-2 2.5 ng/mL) [20] = assay: as above; conditions: 72 h
NK-YS (IL-2 2.5 ng/mL) [21] = assay: as above; conditions: 72 h
NKL (IL-2 2.5 ng/mL) [22] = assay: as above; conditions: 72 h
SNK-6 (IL-2 2.5 ng/mL) [23] = assay: as above; conditions: 72 h
YT (IL-2 2.5 ng/mL) [24] = assay: as above; conditions: 72 h
[25] = system: normal primary NK cells, pool 1 (3 donors) (IL-2 2.5 ng/mL); assay: as above; conditions: 72 h
[26] = system: normal primary NK cells, pool 1 (3 donors), resting (IL-2 0 ng/mL); assay: as above; conditions: 72 h
[27] = system: normal primary NK cells, pool 2 (3 donors) (IL-2 2.5 ng/mL); assay: as above; conditions: 72 h
[28] = system: normal primary NK cells, pool 3 (3 donors) (IL-2 2.5 ng/mL); assay: as above; conditions: 72 h

COc1cc2c(NC3CCN(C(C)C)CC3)nc(N3CCC(F)(F)CC3)nc2cc1OCCCN1CCCC1 [UNC0642] (max concentration tested 10000 nM)
percent inhibition of viability [%]
Conditions | 1 nM | 10 nM | 100 nM | 1000 nM | 10000 nM
DERL-7 (IL-2 2.5 ng/mL) [2] | -0.28 | 1.37 | -1.94 | 0.05 | 99.9
IMC-1 (IL-2 20 ng/mL) [3] | -11.9 | -4.05 | -6.38 | 8.61 | 100
KAI3 (IL-2 2.5 ng/mL) [4] | -0.96 | 1.92 | 10.1 | 48.5 | 103
KHYG-1 (IL-2 2.5 ng/mL) [5] | -4.39 | -1.22 | -6.31 | 6.97 | 28.1
NK-92 (IL-2 2.5 ng/mL) [6] | -11 | -2.07 | -11.4 | 3.52 | 49
NK-YS (IL-2 2.5 ng/mL) [7] | -3.38 | -1.95 | 0.35 | 8.5 | 101
NKL (IL-2 2.5 ng/mL) [8] | -6.06 | -13.9 | -8.65 | 22.1 | 105
SNK-6 (IL-2 2.5 ng/mL) [9] | -9.05 | 11.3 | 2.25 | 25.3 | 99.3
YT (IL-2 2.5 ng/mL) [10] | -6.39 | -3.26 | -2.23 | 4.47 | 74.2
[1] | -4.11 | -7.96 | -1.75 | 10.2 | 100
[11] | -1.76 | 13.1 | 19.9 | 18.1 | 101
[12] | 9.19 | 22.7 | 14 | 28.9 | 98.6
[13] | -4.62 | 6.45 | -2.04 | -4.01 | 99.7
[14] | -1.76 | 4.79 | 4.65 | -5.45 | 100

Conditions | drug sensitivity score
DERL-7 (IL-2 2.5 ng/mL) [16] | 5.6
IMC-1 (IL-2 20 ng/mL) [17] | 6.92
KAI3 (IL-2 2.5 ng/mL) [18] | 11.3
KHYG-1 (IL-2 2.5 ng/mL) [19] | 2.2
NK-92 (IL-2 2.5 ng/mL) [20] | 3.1
NK-YS (IL-2 2.5 ng/mL) [21] | 6.94
NKL (IL-2 2.5 ng/mL) [22] | 9.05
SNK-6 (IL-2 2.5 ng/mL) [23] | 9.35
YT (IL-2 2.5 ng/mL) [24] | 4.75
[15] | 7.22
[25] | 8.52
[26] | 9.04
[27] | 5.23
[28] | 5.16
